Data on 16 molecules can be found in ChEMBL document CHEMBL2413014, “Imidazolium-based warheads strongly influence activity of water-soluble peptidic transglutaminase inhibitors” (Eur J Med Chem, 2013).

A word on the pIC50: it is the negative decadic logarithm of the IC50, by convention in mol/L.

For data set [1], the target named is T1, Coagulation factor XIII A chain (Homo sapiens, UniProt P00488).
T1 sequence (P00488 whole entry): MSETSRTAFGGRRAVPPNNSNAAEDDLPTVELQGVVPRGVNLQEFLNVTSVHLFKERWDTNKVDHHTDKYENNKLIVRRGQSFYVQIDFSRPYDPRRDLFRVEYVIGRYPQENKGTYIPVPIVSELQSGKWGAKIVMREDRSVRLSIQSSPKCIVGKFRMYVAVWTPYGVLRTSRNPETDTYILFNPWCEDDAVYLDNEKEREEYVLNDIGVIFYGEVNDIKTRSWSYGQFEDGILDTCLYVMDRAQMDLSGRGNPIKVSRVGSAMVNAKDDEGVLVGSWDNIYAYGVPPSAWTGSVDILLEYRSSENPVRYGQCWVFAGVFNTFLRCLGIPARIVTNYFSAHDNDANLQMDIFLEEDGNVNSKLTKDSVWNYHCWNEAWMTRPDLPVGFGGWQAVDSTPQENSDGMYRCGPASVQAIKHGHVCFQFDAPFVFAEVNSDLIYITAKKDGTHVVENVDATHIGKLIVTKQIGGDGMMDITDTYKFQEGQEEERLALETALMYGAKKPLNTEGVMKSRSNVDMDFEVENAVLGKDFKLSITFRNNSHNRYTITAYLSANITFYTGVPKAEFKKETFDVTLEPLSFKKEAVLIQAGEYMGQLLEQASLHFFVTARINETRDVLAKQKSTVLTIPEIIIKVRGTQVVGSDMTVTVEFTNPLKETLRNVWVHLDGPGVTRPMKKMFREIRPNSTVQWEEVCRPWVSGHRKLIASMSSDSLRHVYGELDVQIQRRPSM
In words: Inhibition of recombinant human F13a-mediated biotin X-cadaverine incorporation into N,N'-dimethylcasein after 1 hr.

Data set [2] addresses T2, Protein-glutamine gamma-glutamyltransferase (Homo sapiens, UniProt P21980).
T2 sequence (P21980 whole entry): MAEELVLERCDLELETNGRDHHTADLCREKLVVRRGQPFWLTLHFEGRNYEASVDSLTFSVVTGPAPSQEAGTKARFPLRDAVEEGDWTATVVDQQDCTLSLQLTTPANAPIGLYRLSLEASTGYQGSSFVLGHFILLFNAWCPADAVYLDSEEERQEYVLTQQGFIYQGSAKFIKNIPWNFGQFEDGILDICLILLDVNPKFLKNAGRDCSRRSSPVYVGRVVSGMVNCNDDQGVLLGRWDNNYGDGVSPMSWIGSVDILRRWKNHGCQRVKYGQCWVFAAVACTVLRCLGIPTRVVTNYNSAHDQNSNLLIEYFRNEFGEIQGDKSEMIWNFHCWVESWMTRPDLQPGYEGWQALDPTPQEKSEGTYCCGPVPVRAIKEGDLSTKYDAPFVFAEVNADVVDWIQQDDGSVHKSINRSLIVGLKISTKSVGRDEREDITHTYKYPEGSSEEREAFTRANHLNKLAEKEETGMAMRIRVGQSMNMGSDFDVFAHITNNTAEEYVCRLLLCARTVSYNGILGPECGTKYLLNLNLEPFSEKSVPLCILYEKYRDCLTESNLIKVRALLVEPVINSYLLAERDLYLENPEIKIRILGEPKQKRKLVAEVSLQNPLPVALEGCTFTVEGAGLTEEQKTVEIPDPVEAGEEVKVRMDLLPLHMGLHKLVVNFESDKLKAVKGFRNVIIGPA
In words: Inhibition of recombinant human tissue transglutaminase-mediated biotin X-cadaverine incorporation into N,N'-dimethylcasein after 1 hr.

Another data set deals with NIH3T3. In words: Cytotoxicity against Swiss mouse 3T3 cells up to 250 uM after 72 hrs. Type of data set: cell-based. The settings on record: nih3t3, 72 h.

Each structure is given as a SMILES string. pIC50: −log10 of the molar value.

Consider `CCCc1c(CCC)[n+](C)c(SCC(=O)CC[C@H](NC(=O)CNC(=O)OCc2ccccc2)C(=O)O)n1C`, for which the pIC50 in data set [1] is 4.70; in data set [2] it was 5.00.

In the case of `CCC[n+]1c(C)c(C)n(C)c1SCC(=O)CC[C@H](NC(=O)[C@H](Cc1ccccc1)NC(=O)OCc1ccccc1)C(=O)O`, the pIC50 in data set [1] and in data set [2] was less than 3.70 throughout.

In the case of `Cc1c(C)[n+](C)c(SCC(=O)CC[C@H](NC(=O)[C@H](Cc2ccccc2)NC(=O)OCc2ccccc2)C(=O)O)n1C.[Br-]`, the Activity entry in the data set on NIH3T3 is recorded as “Non-toxic”. Moreover, the pIC50 in data set [1] was 5.30; in data set [2] it was 5.52.

Consider `CCn1c(C)c(C)[n+](CC)c1SCC(=O)CC[C@H](NC(=O)CNC(=O)OCc1ccccc1)C(=O)O`, for which the negative-log IC50 (pIC50) in data set [1] and in data set [2] was less than 3.70 in each case.

For `CCn1c(C)c(C)[n+](CC)c1SCC(=O)CC[C@H](NC(=O)[C@H](Cc1ccccc1)NC(=O)OCc1ccccc1)C(=O)O`, the negative logarithm of the IC50 (pIC50) in data set [1] was 4.30; in data set [2], less than 3.70.

With `CC[S+](CC)CC(=O)CC[C@H](NC(=O)CNC(=O)OCc1ccccc1)C(=O)O`, the results for the pIC50 in data set [1] and in data set [2] were less than 3.70 and 4.70, respectively.

In the case of `CCC[n+]1c(C)c(C)n(C)c1SCC(=O)CC[C@H](NC(=O)CNC(=O)OCc1ccccc1)C(=O)O`, the pIC50 is 4.52 in data set [1] and less than 3.70 in data set [2].

With `C[S+](C)CC(=O)CC[C@H](NC(=O)CNC(=O)OCc1ccccc1)C(=O)O`, the pIC50 in data set [1] was less than 3.70; in data set [2], 5.10.

Regarding `C[S+](C)CC(=O)CC[C@H](NC(=O)[C@H](Cc1ccccc1)NC(=O)OCc1ccccc1)C(=O)O`, the pIC50 in data set [1] is 3.98; in data set [2], 5.00.

Regarding `CC[S+](CC)CC(=O)CC[C@H](NC(=O)[C@H](Cc1ccccc1)NC(=O)OCc1ccccc1)C(=O)O`, the values for the negative-log IC50 (pIC50) in data set [1] and in data set [2] were less than 3.70 and 4.70, respectively.

As to `Cc1c(C)[n+](C)c(SCC(=O)CC[C@H](NC(=O)CNC(=O)OCc2ccccc2)C(=O)O)n1-c1ccccc1`, the negative-log IC50 (pIC50) in data set [1] and in data set [2] was less than 3.70 throughout.

For `Cc1c(C)[n+](C)c(SCC(=O)CC[C@H](NC(=O)[C@H](Cc2ccccc2)NC(=O)OCc2ccccc2)C(=O)O)n1-c1ccccc1`, the pIC50 in data set [1] and in data set [2] was less than 3.70 each time.

Take `Cc1c(C)[n+](C)c(SCC(=O)CC[C@H](NC(=O)[C@H](Cc2ccccc2)NC(=O)OCc2ccccc2)C(=O)O)n1Cc1ccccc1`: the pIC50 in data set [1] and in data set [2] was less than 3.70 in each case.

Turning to `Cc1c(C)[n+](C)c(SCC(=O)CC[C@H](NC(=O)CNC(=O)OCc2ccccc2)C(=O)O)n1C`, the pIC50 in data set [1] was 5.70; in data set [2], 6.00.

As to `CCCc1c(CCC)[n+](C)c(SCC(=O)CC[C@H](NC(=O)[C@H](Cc2ccccc2)NC(=O)OCc2ccccc2)C(=O)O)n1C`, the negative logarithm of the IC50 (pIC50) in data set [1] was 5.00; in data set [2] it was 5.30.

Consider `Cc1c(C)[n+](C)c(SCC(=O)CC[C@H](NC(=O)CNC(=O)OCc2ccccc2)C(=O)O)n1Cc1ccccc1`, for which the pIC50 in data set [1] and in data set [2] was less than 3.70 throughout.
